How the values were obtained:
[1] = system: PI3Kβ; conditions: reported in literature; cited from earlier work
[2] = system: ER/Her2-positive breast cancer PDXs; assay: γH2AX and telomere-induced foci (TIFs) in PDXs; format: in vivo, mouse; conditions: 12 days
Method: We also observed a higher number of telomere-induced DNA damage foci (TIFs) in the BYL719-treated “responder” tumors than in the “non-responders” (Fig. 8h, i), in agreement with lower levels of telomere bound TRF1 levels in the “responders” (Fig. 8b, d).
Formalin-fixed paraffin-embedded PDXs sections were permeabilized with 0.5% PBS-Triton for 1 h and blocked first with fetal bovine serum for 2 h and then in 5% BSA for 2 h. Samples were incubated O/N at 4 °C with the primary antibody. Antibodies used were anti-TRF1 (1:200) (TRF-78, ABCAM, ab10579), anti-RAP1 (1:300) (Bethyl Laboratories, A300-306A), and anti-phospho-histone2 H2AX-Ser139 (γH2AX) (1:300) (Millipore, 05-636). Slides were further incubated with 488-Alexa or 555-Alexa labeled secondary antibodies. Nuclei were counterstained in a 4 µg/ml 4′,6-[…]-2-phenylindole (DAPI)/PBS solution before mounting with Vectashield.

[3] = system: PI3Kδ; conditions: reported in literature; cited from earlier work
[4] = system: mTOR; conditions: reported in literature; cited from earlier work
[5] = system: PI3Kγ; conditions: reported in literature; cited from earlier work
[6] = system: telomeric TRF1 in ER/Her2-positive breast cancer PDXs; assay: Telomeric TRF1 foci (immuno-FISH) in breast cancer PDXs; format: in vivo, mouse; conditions: BYL719 35 mg/kg QD 6 days/week, 12 days
Method: (§1) To this end, we generated PDXs from seven independent ER/Her2-positive breast cancer patients in female athymic NMRI nu/nu mice, and treated these with either the PI3Kα specific inhibitor BYL719 (35 mg/k 6IW) or with vehicle during a total of 12 days. Mice were then killed and PDXs extracted and formalin fixed for further analysis. A TRF1 immunofluorescence followed by a telomere quantitative q-FISH was performed in PDXs sections to identify TRF1 specifically located at telomeres by co-localization of TRF1 protein to telomeric DNA, as well as to quantify telomere length. […] Immunohistochemistry staining of phosphorylated AKT (S473) in these same PDXs followed by quantification of tumor positive area was performed to address the efficacy of BYL719 treatment (Fig. 8c, d). […]
(§2) An immune-Fish was performed in formalin-fixed paraffin-embedded PDXs sections to identify telomeric TRF1 and quantify telomere length. TRF1 foci were detected by immunofluorescence as described above. Quantitative FISH was performed as follows: samples were permeabilized for 2 h in PBS-5% Triton, blocked for 1 h with 5% BSA in PBS, and immunofluorescence with TRF1 homemade rat TRF1 antibody diluted 1:500 was performed. […] Maximal projection of Z-stack images generated using advanced fluorescence software (LAS) was analyzed with the Definiens XD software package. […]

[7] = system: ER/Her2-positive breast cancer PDXs; assay: Mean telomere length by Q-FISH in PDXs; format: in vivo, mouse; conditions: seven PDXs; 12 days
Method: as §1, §2

[8] = system: TRF1 foci in CHA-9.3 mouse lung tumor cell line; assay: TRF1 foci immunofluorescence in CHA-9.3 cells; format: cell-based; conditions: Mus musculus; 10 μM; 24 h; CHA-9.3; relative to DMSO; read-out: Inhibition of TRF1 foci fluorescence
Method: TRF1 immunofluorescence of TRF1 was performed in lung tumor-derived cell line (CHA9.3) and in MEFs[39]. A rat monoclonal antibody against mouse TRF1 developed by the Monoclonal antibody unit at CNIO was used to detect endogenous TRF1 (1:500). GFP-TRF1 fluorescence was directly measured in cells fixed in paraformaldehyde. For quantification of TRF1 foci intensity, pictures of fixed cells were automatically acquired from each well by the Opera HCS system (Perkin Elmer). Sixty images of random fields per well, with a 40× magnification lens, were taken under non-saturating conditions. At least 1 × 10^3 cells were analyzed for each well. Briefly, images were segmented using the DAPI staining to generate masks matching cell nuclei from which-TRF1 foci were analyzed.

[9] = system: pAKT (S473) in ER/Her2-positive breast cancer PDXs; assay: pAKT (S473) immunohistochemistry in breast cancer PDXs; format: in vivo, mouse; conditions: 12 days
Method: To this end, we generated PDXs from seven independent ER/Her2-positive breast cancer patients in female athymic NMRI nu/nu mice, and treated these with either the PI3Kα specific inhibitor BYL719 (35 mg/k 6IW) or with vehicle during a total of 12 days. Mice were then killed and PDXs extracted and formalin fixed for further analysis. A TRF1 immunofluorescence followed by a telomere quantitative q-FISH was performed in PDXs sections to identify TRF1 specifically located at telomeres by co-localization of TRF1 protein to telomeric DNA, as well as to quantify telomere length. Telomeric TRF1 foci at telomeres (green spots) were unequivocally identified by co-localization with telomeric PNA probe (red spots) (Fig. 8a). […] Immunohistochemistry staining of phosphorylated AKT (S473) in these same PDXs followed by quantification of tumor positive area was performed to address the efficacy of BYL719 treatment (Fig. 8c, d). […] These four PDXs were considered as “responders” to the PI3Kαi treatment. […] This unexpected increase in pAKT levels of PDX191 upon BYL719 treatment could be explained by the activation of regulatory feedback loops that trigger compensatory signaling events leading to activation of the AKT pathway. These three PDX (PDX131, PDX39, PDX191) were considered as “non-responders” to the treatment with the PI3Kα inhibitor BYL719. […] It should be pointed out that untreated PDX131 and PDX39 that presented undetectable pAKT levels correspond to those samples with the lowest telomeric TRF1 levels (Fig. 8b, d). […] In addition, the telomere length changes were more moderate as compared to changes observed in TRF1 levels.
Experiments were conducted following the European Union’s animal care directive (86/609/EEC) and were approved by the Ethical Committee of Animal Experimentation of the Vall d’Hebron Research Institute and patient consent. Fresh primary or metastatic human breast tumors were obtained from patients at time of surgery or biopsy. […]

[10] = molecular target: T1, mTOR (FRAP1) (Homo sapiens, UniProt P42345); assay: mTOR biochemical assay (LanthaScreen); conditions: as given in the text
T1 construct: purchased ThermoFisher PV4753
T1 sequence (P42345 1360-2549 limits assumed): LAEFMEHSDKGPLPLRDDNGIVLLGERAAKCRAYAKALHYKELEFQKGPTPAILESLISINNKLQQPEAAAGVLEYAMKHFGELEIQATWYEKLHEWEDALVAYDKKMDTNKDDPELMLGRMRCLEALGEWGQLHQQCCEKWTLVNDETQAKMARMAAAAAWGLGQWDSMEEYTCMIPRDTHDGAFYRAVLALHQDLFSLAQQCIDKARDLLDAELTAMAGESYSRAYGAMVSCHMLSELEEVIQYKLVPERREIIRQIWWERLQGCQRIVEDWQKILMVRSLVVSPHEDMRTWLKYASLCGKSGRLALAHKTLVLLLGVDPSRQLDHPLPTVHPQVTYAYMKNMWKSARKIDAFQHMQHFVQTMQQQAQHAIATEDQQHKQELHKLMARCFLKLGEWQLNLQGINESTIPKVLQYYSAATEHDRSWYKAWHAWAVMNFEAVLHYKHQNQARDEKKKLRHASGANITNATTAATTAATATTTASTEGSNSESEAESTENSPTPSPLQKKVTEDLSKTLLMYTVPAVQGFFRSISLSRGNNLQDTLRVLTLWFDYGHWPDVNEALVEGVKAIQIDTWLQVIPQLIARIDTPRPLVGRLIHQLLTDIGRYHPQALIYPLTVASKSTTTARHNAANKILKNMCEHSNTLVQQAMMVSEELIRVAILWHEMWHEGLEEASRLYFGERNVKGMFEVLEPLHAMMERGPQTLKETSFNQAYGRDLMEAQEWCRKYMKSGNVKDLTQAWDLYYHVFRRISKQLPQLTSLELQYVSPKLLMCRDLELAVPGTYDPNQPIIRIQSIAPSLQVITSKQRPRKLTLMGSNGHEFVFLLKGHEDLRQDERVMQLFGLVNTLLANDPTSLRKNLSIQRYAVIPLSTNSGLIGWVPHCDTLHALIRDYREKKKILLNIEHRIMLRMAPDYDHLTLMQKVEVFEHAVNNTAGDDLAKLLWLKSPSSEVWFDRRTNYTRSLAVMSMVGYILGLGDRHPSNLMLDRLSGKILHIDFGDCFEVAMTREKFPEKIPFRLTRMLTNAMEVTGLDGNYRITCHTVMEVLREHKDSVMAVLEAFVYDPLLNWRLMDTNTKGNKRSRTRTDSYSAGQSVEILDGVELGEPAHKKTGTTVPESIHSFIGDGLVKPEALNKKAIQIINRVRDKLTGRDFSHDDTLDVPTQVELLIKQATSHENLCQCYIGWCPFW

[11] = system: PI3Kα; conditions: reported in literature; cited from earlier work

Cc1nc(NC(=O)N2CCC[C@H]2C(N)=O)sc1-c1ccnc(C(C)(C)C(F)(F)F)c1 [BYL-719]
IC50 [1]: 1200 nM | Telomere-induced DNA damage foci (TIFs), responders vs non-responders ([2]; BYL719-treated PDXs): higher number | Cells presenting DNA damage (γH2AX positive cells) ([2]; responder PDXs): significant increase | IC50 [3]: 290 nM | IC50 [4]: > 9100 nM | IC50 [5]: 250 nM | Telomeric TRF1 levels vs vehicle (in words) ([6]; PDX98): remained unchanged | Telomeric TRF1 spot intensity, percent change vs vehicle (↑ increase) ([6]; PDX191): 80% | Mean telomere length upon treatment (in words) [7]: moderate but significant changes | inhibition at 10 µM [8]: 30% | pAKT levels upon treatment (in words) ([9]; PDX39 (negative for pAKT at basal levels)): remained unchanged | pAKT levels upon treatment (in words) ([9]; PDX131 (negative for pAKT at basal levels)): remained unchanged | pAKT (S473) positive tumor area, percent change vs vehicle (↑ increase) ([9]; PDX191, BYL719 35 mg/kg QD 6 days/week): 46% | IC50 [10]: > 10000 nM | IC50 [11]: […]
